ChEMBL document CHEMBL1201862, “PubChem BioAssay data set” (2004)
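96-well plates; 48 h exposure; 5 concentrations. Endpoints by linear interpolation between flanking doses. Not reached: highest tested concentration assigned. GI50 = concentration required for 50% inhibition of growth.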 The source made the active and inactive calls. Rule as the data show it: active = GI50 up to about 1.1 µM and inactive = higher.

Experiments:
Assay in all cases: DTP human tumour cell line panel, 48 h
Hs-578T = test system: Hs-578T
DU-145 = test system: DU-145
PC-3 = test system: PC-3
MDA-N = test system: MDA-N
MDA-MB-231 = test system: MDA-MB-231
T47D = test system: T47D
MDA-MB-435 = test system: MDA-MB-435
786-0 = test system: 786-0
RXF 631 = test system: RXF 631

Measured: GI50

CCOC(=O)c1csc(NC(=O)CN2CCOCC2)n1
inactive: Hs-578T > 100 µM | DU-145 > 100 µM | PC-3 > 100 µM | MDA-N > 100 µM | MDA-MB-231 > 100 µM | T47D > 100 µM | MDA-MB-435 > 100 µM

C=CCNC(=O)N(CCCC(NC(C)=O)C(=O)NCc1ccccc1)Cc1ccccc1 (stereo not given)
inactive: 786-0 > 100 µM

CC(C)C1N2CCCCC2[C@@H]2c3[nH]c4ccccc4c3CCN12 (stereo not given in full)
inactive: 786-0 > 100 µM

COC(=O)/C=C(C)/C=C\COC1CCCCO1 (stereo not given)
inactive: Hs-578T > 100 µM | DU-145 > 100 µM | PC-3 > 100 µM | MDA-N > 100 µM | MDA-MB-231 > 100 µM | T47D > 100 µM | MDA-MB-435 > 100 µM | 786-0 > 100 µM

COc1cc(/C=N\O)cc(/C=N/O)c1O
inactive: Hs-578T 17.6 µM | DU-145 > 100 µM | PC-3 28.9 µM | MDA-N 39.9 µM | MDA-MB-231 47.3 µM | T47D 26.4 µM | MDA-MB-435 40 µM

COc1ccc(C2c3cc4c(cc3OC(O)(CO)C2C(=O)O)OCO4)cc1.COc1ccc(C2c3cc4c(cc3OC3(O)COC(=O)C23)OCO4)cc1 (stereo not given)
inactive: RXF 631 19.5 µM

N#Cc1c(-c2ccc([N+](=O)[O-])cc2)cc(-c2ccc(Nc3ccnc4cc(C(F)(F)F)ccc34)cc2)nc1N
inactive: Hs-578T 24.5 µM | DU-145 13.1 µM | PC-3 18.9 µM | MDA-N 9.77 µM | MDA-MB-231 18.9 µM | T47D 7.89 µM | MDA-MB-435 9.14 µM | 786-0 4.1 µM

COC(=O)C12CCCN1CCC2
inactive: DU-145 > 100 µM | PC-3 > 100 µM | MDA-N > 100 µM | MDA-MB-231 > 100 µM | T47D > 100 µM | MDA-MB-435 > 100 µM | 786-0 > 100 µM
